Results from patent US9274128B2, “Transcriptional repression leading to parkinson's disease” (priority 2010, dated 2016).
Peptide text beside a SMILES is read from it. * marks the point of attachment. Cbz = O=C(OCc1ccccc1)*

Test system: proteasome
Assay: PARIS steady state levels in SH-SY5Y cells treated with proteasome inhibitor (immunoblot)
Type: cell-based, human
Details: for PARIS steady state level: 10 μM MG-132 vs DMSO control, normalized to β-actin
Method: Human neuroblastoma SH-SY5Y cells (ATCC, Manassas, Va.) were grown in DMEM containing 10% FBS and antibiotics in a humidified 5% CO2/95% air atmosphere at 37° C. For transient transfection, cells were transfected with indicated amounts of target vector using Lipofectamine Plus (Invitrogen), according to manufacturer's instructions. For co-immunoprecipitation from cell cultures, SH-SY5Y cells were transfected with 2 μg of each plasmid, unless otherwise indicated. For the ubiquitination assay, SH-SY5Y cells were transiently transfected with 2 μg of pRK5-Myc-tagged parkin, Myc-tagged parkin (C431F, G430D, R275W, and Q311 X) pCMV-FLAG-PARIS, and 2 μg of pMT123-HA-ubiquitin plasmids for 48 hours. For the luciferase assay SH-SY5Y cells were transiently transfected with pCMV-empty vector or pCMV-FLAG-PARIS with either wild type or Q311X parkin, or pGL3-Basic, pGL3-PGC-1α promoter-Luciferase, or pGL3-PGC-1α promoter deletion mutant (a gift from Akyoshi Fukamizu, University of Tsukuba, Japan) (Daitoku et al., 2003) for firefly Luciferase assay and 0.1 μg pRL-TK vector (Promega) for Renilla luciferase control.
The tissues including nine different organs, eight different brain regions from C57/BL6 mouse, human brain, and mouse brain were homogenized in lysis buffer [10 mM Tris-HCl, pH 7.4, 150 mM NaCl, 5 mM EDTA, 0.5% Nonidet P-40, 10 mM Na-β-glycerophosphate, […] I and II (Sigma), and Complete Protease Inhibitor Mixture (Roche)], using a Diax 900 homogenizer. After homogenization, samples were rotated at 4° C. for 30 min for complete lysis, then the homogenate was centrifuged at 52,000 rpm for 20 min, and the resulting fractions were collected. Protein levels were quantified using the BCA kit (Pierce) with BSA standards and analyzed by immunoblot. Immunoblotting was performed with an antibody of interest and was performed with chemiluminescence (Pierce). The densitometric analyses of the bands were performed using ImageJ (NIH, http://rsb.info.nih.gov/ij/). Data are expressed as mean±S.E.M. The results were evaluated for statistical significance by applying the unpaired two-tailed Student's t-test or Student-Newman-Keuls. Differences were considered significant when p<0.05.

For CC(C)C[C@@H](C=O)NC(=O)[C@H](CC(C)C)NC(=O)[C@H](CC(C)C)NC(=O)OCc1ccccc1 [MG132] (Cbz-Leu-Leu-Leu-aldehyde), the “PARIS steady state level” value was “increased approximately two to three fold”, the “PARIS steady state level” value (listed as MG-132) was “increases PARIS steady state levels” and the “Parkin-mediated degradation of FLAG-PARIS” value (MYC-parkin to FLAG-PARIS 4 to 1, 10 μM MG-132) was “blocked”. The “Parkin-mediated degradation of FLAG-PARIS” value (MYC-parkin to FLAG-PARIS 4 to 1, 10 μM MG-132, listed as MG-132) was “prevents the degradation of FLAG-PARIS”.
